Measurements taken from ChEMBL document CHEMBL1687784, “Frequency of spontaneous resistance to fosfomycin combined with different antibiotics in Pseudomonas aeruginosa” (2010).
In brackets after ≈: the same amount, converted by molar mass.

Experiments:
Pseudomonas aeruginosa [1] = experiment: Antimicrobial activity against Pseudomonas aeruginosa PA14 mutS gene hypermutant by EUCAST method; assay type: functional
Pseudomonas aeruginosa [2] = experiment: Antimicrobial activity against Pseudomonas aeruginosa PA14 by EUCAST method; assay type: functional

Compound	MIC (Pseudomonas aeruginosa [1]) [µg/mL]	MIC (Pseudomonas aeruginosa [2]) [µg/mL]
NCC[C@H](O)C(=O)N[C@@H]1C[C@H](N)[C@@H](O[C@H]2O[C@H](CN)[C@@H](O)[C@H](O)[C@H]2O)[C@H](O)[C@H]1O[C@H]1O[C@H](CO)[C@@H](O)[C@H](N)[C@H]1O [AMIKACIN]	1 (≈ 1.71 µM)	1 (≈ 1.71 µM)
CC(C)(O/N=C(\C(=O)N[C@@H]1C(=O)N2C(C(=O)[O-])=C(C[n+]3ccccc3)CS[C@H]12)c1csc(N)n1)C(=O)O [CEFTAZIDIME]	1 (≈ 1.83 µM)	1 (≈ 1.83 µM)
O=C(O)c1cn(C2CC2)c2cc(N3CCNCC3)c(F)cc2c1=O [CIPROFLOXACIN]	0.1 (≈ 0.302 µM)	0.1 (≈ 0.302 µM)
C[C@@H]1O[C@@H]1P(=O)(O)O [FOSFOMYCIN]	8 (≈ 57.9 µM)	8 (≈ 57.9 µM)
C[C@@H](O)[C@H]1C(=O)N2C(C(=O)O)=C(SCCNC=N)C[C@H]12 [IMIPENEM ANHYDROUS]	0.5 (≈ 1.67 µM)	0.5 (≈ 1.67 µM)
C[C@@H](O)[C@H]1C(=O)N2C(C(=O)O)=C(S[C@@H]3CN[C@H](C(=O)N(C)C)C3)[C@H](C)[C@H]12 [MEROPENEM]	0.25 (≈ 0.652 µM)	0.25 (≈ 0.652 µM)
NC[C@H]1O[C@H](O[C@H]2[C@H](O)[C@@H](O[C@H]3O[C@H](CO)[C@@H](O)[C@H](N)[C@H]3O)[C@H](N)C[C@@H]2N)[C@H](N)C[C@@H]1O [TOBRAMYCIN]	1 (≈ 2.14 µM)	1 (≈ 2.14 µM)
COLISTIN	0.5	0.5
